# pIC50: −log10 of the molar value.
# Target: HCV RNA-dependent RNA polymerase (NS5B protein) (Hepatitis C virus genotype 1b, UniProt P26663)
# Assay: In vitro HCV RNA-dependent RNA polymerase assay (Assay 1, polyA/oligo dT, 32P-UTP incorporation)
# Assay type: biochemical
# Details: purified recombinant HCV NS5B, homopolymeric template/primer polyA/oligo dT; read-out: RNA pol Assay1 IC50
# Experimental: Compounds were evaluated using an in vitro polymerase assay containing purified recombinant HCV RNA-dependent RNA polymerase (NS5B protein). HCV NS5B was expressed in insect cells using a recombinant baculovirus as vector. The experimental procedures used for the cloning, expression and purification of the HCV NS5B protein are described below. Follows, are details of the RNA-dependent RNA polymerase assays used to test the compounds.
# The cDNA encoding the entire NS5B protein of HCV-Bk strain, genotype 1b, was amplified by PCR using the primers NS5Nhe5′ (5′-[…]-3′) (SEQ ID NO: 1) and XhoNS53′ (5′-[…]-3′) (SEQ ID NO: 2) and the plasmid pCD 3.8-9.4 as template (Tomei et al, 1993). NS5Nhe5′ and XhoNS53′ contain two NheI and XhoI sites (underlined sequences), respectively, at their 5′ end. The amplified DNA fragment was cloned in the bacterial expression plasmid pET-21b (Novagen) between the restriction sites NheI and XhoI, to generate the plasmid pET/NS5B. This plasmid was later used as template to […] the NS5B coding region, using the primers NS5B-H9 (5′-[…]-3′) (SEQ ID NO: 3) and NS5B-R4 (5′-[…]-3′) (SEQ ID NO: 4). NS5B-H9 spans a region of 15 nucleotides in the plasmid pET-21b followed by the translation initiation codon (ATG) and […] corresponding to the 5′ end of the NS5B coding region (nt. 7590-7607 in the HCV sequence with the accession number M58335) . NS5B-R4 contains two BamHI sites (underlined) followed by 18 nucleotides corresponding to the region around the stop codon in the HCV genome (nt. 9365-9347). The amplified sequence, of 1.8 kb, was digested with NheI and BamHI and ligated to a predigested pBlueBacII plasmid (Invitrogen) . The resulting recombinant plasmid was designated pBac/NS5B. Sf9 cells were co-transfected with 3 μg of pBac/NS5B, together with 1 μg of linearized baculovirus DNA (Invitrogen), as described in the manufacturer's protocol. Following two rounds of plaque purification, an NS5B-recombinant baculovirus, BacNS5B, was isolated. The presence of the recombinant NS5B protein was determined by western blot analysis (Harlow and Lane, 1988) of BacNS5B-infected Sf9 cells, using a rabbit polyclonal antiserum (anti-NS5B) raised against a His-tagged version of the NS5B protein expressed in E. coil. Infections of Sf9 cells with this plaque purified virus were performed in one-liter spinner flasks at a cell density of 1.2×10^6 cells/ml and a multiplicity of infection of 5.
# Sf9 cells were infected as described above. Sixty hours post-infection, cells were harvested then washed twice with phosphate buffer saline (PBS). Total proteins were solubilized as described in Lohmann et al. (1997) with some modifications. In brief, proteins were extracted in three steps, S1, S2, S3, using lysis buffers (LB) I, LB II and LB III (Lohmann et al, 1997). The composition of LBII was modified to contain 0.1% triton X-100 and 150 mM NaCl to reduce the amount of solubilized NS5B protein at this step. In addition, sonication of cell extracts was avoided throughout the protocol to preserve the integrity of the protein structure.
# Soluble NS5B protein in the S3 fraction was diluted to lower the NaCl concentration to 300 mM, then it incubated batchwise with DEAE sepharose beads (Amersham-Pharmacia) for 2 hrs at 4° C., as described by Behrens et al. (1996). Unbound material was cleared by centrifugation for 15 min at 4° C., at 25000 rpm using a SW41 rotor (Beckman). The supernatant was further diluted to lower the NaCl concentration to 200 mM and subsequently loaded, with a flow rate of 1 ml/min, on a 5 ml HiTrap® heparin column (Amersham-Pharmacia) connected to an FPLC® system (Amersham-Pharmacia). Bound proteins were eluted in 1 ml fractions, using a continuous NaCl gradient of 0.2 to 1 M, over a 25 ml volume. […]
# Sequence of HCV RNA-dependent RNA polymerase (NS5B protein) (P26663 2420-3010 limits assumed): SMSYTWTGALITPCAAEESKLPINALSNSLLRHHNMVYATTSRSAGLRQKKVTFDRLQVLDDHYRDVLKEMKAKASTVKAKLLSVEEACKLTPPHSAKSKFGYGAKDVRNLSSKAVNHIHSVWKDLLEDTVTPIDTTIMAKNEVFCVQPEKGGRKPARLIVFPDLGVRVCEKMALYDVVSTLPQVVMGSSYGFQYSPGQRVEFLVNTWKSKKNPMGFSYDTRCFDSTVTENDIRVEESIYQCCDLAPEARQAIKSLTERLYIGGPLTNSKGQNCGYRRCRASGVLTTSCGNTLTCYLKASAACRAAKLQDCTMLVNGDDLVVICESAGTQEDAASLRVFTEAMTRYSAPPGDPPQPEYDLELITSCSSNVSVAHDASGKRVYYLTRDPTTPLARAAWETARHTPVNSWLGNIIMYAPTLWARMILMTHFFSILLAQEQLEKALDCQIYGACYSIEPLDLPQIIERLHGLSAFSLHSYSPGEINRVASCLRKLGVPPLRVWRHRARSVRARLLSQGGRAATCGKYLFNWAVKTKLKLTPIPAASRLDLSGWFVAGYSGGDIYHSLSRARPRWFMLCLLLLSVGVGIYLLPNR
row,pIC50,SMILES
1,> 5.30,"CN(C(=O)c1ccc(Cl)cc1)c1nc(-c2ccccc2)sc1C(=O)O [Compound #14, 4-[(4-Chloro-benzoyl)-methyl-amino]-2-phenyl-thiazole-5-carboxylic acid]"
2,< 4.70,"Cc1ccc(S(=O)(=O)Nc2nc(-c3ccccc3)sc2C(=O)O)cc1 [Compound #10, 2-Phenyl-4-(toluene-4-sulfonylamino)-thiazole-5-carboxylic acid]"
3,> 5.30,"CN(C(=O)c1ccc(Cl)cc1Cl)c1nc(-c2ccccc2)sc1C(=O)O [Compound #2, 4-[(2,4-Dichloro-benzoyl)-methyl-amino]-2-phenyl-thiazole-5-carboxylic acid]"
4,> 5.30,"CCN(C(=O)c1ccc(Cl)cc1Cl)c1nc(-c2ccccc2)sc1C(=O)O [Compound #4, 4-[(2,4-Dichloro-benzoyl)-ethyl-amino]-2-phenyl-thiazole-5-carboxylic acid]"
5,4.70 to 5.30,"Cc1ccc(S(=O)(=O)Nc2nc(-c3ccccc3)sc2C(=O)O)c(C)c1 [Compound #9, 4-(2,4-Dimethyl-benzenesulfonylamino)-2-phenyl-thiazole-5-carboxylic acid]"
6,< 4.70,"Cc1cccc(C(=O)Nc2nc(-c3ccccc3)sc2C(=O)O)c1 [Compound #12, 4-(3-Methyl-benzoylamino)-2-phenyl-thiazole-5-carboxylic acid]"
7,4.70 to 5.30,"Cc1ccccc1S(=O)(=O)Nc1nc(-c2ccccc2)sc1C(=O)O [Compound #5, 2-Phenyl-4-(toluene-2-sulfonylamino)-thiazole-5-carboxylic acid]"
8,4.70 to 5.30,"Cc1ccc(C(=O)N(C)c2nc(N3CCOCC3)sc2C(=O)O)c(C)c1 [Compound #16, 4-[(2,4-DIMETHYL-BENZOYL)-METHYL-AMINO]-2-MORPHOLIN-4-YL-THIAZOLE-5-CARBOXYLIC ACID]"
9,> 5.30,"Cc1ccc(C(=O)N(C)c2nc(-c3ccccc3)sc2C(=O)O)cc1 [Compound #1, 4-[Methyl-(4-methyl-benzoyl)-amino]-2-phenyl-thiazole-5-carboxylic acid]"
10,< 4.70,"Cc1ccc(C(=O)Nc2nc(-c3ccccc3)sc2C(=O)O)c(C)c1 [Compound #8, 4-(2,4-Dimethyl-benzoylamino)-2-phenyl-thiazole-5-carboxylic acid]"
11,4.70 to 5.30,"CN(C(=O)c1ccccc1Cl)c1nc(-c2ccccc2)sc1C(=O)O [Compound #13, 4-[(2-Chloro-benzoyl)-methyl-amino]-2-phenyl-thiazole-5-carboxylic acid]"
12,> 5.30,"Cc1ccc(C(=O)N(c2nc(-c3ccccc3)sc2C(=O)O)C(C)C)cc1 [Compound #6, 4-[Isopropyl-(4-methyl-benzoyl)-amino]-2-phenyl-thiazole-5-carboxylic acid]"
13,4.70 to 5.30,O=C(Nc1nc(-c2ccccc2)sc1C(=O)O)c1ccc(Cl)cc1 [Compound #15]
14,> 5.30,"CC(C)N(C(=O)c1ccc(Cl)cc1Cl)c1nc(-c2ccccc2)sc1C(=O)O [Compound #3, 4-[(2,4-Dichloro-benzoyl)-isopropyl-amino]-2-phenyl-thiazole-5-carboxylic acid]"
15,4.70 to 5.30,"O=C(Nc1nc(-c2ccccc2)sc1C(=O)O)c1ccc(Cl)cc1Cl [Compound #11, 4-(2,4-Dichloro-benzoylamino)-2-phenyl-thiazole-5-carboxylic acid]"
16,< 4.70,"O=C(Nc1nc(-c2ccccc2)sc1C(=O)O)c1ccc(Cl)cc1 [Compound #7, 4-(4-Chloro-benzoylamino)-2-phenyl-thiazole-5-carboxylic acid]"
